The record followed here is US8673977B2, “Choline salts of succinic acid for the treatment of depression, anxiety, schizophrenia, sleep disorder, and epilepsy” (priority 2008, dated 2014).

For assay [1], the system named is young male CD1 mice. Conditions: mean±SEM, scored during 6 min.
Description: (A) In the forced swim test, young male CD1 mice, singly housed, were used. Mice were treated i.p. with saline (control) or 25 mg/kg compounds (I) or (II) for 7 days once-a-day and tested at 8th day. In the reference group, mice were treated i.p. with 10 mg/kg Imipramine 30 min prior the swimming test. Forced swim test was done in a glass cylinder 17 cm diameter, water height 13 cm (7 cm to the edge of a cylinder) filled with water at ambient temperature. Animals were scored during 6 min. The latency of the first floating episode was accepted as a measure of forced swim behavior. Statistical analysis was done using ANOVA and Mann-Whitney test as a post-hoc analysis.
Assay [2] deals with young male CD1 mice. The settings on record: mean±SEM, n=20.
Description: (B) In the chronic stress depression model, young male CD1 mice, singly housed, were used. […] Stress procedure was used for 10 days. In the reference group, mice received Imipramine orally 8 mg/kg per day for 7 days prior the stress and then in a course on entire 10-days-stress-procedure. Animals (n=20 per group) were tested on a sucrose preference at 10th day of the stress procedure. Statistical analysis was done using ANOVA and Mann-Whitney test as a post-hoc analysis. Data are presented in Table 2 as mean±SEM of a percentage of sucrose preference.
The subject of assay [3] is Rats. The settings on record: rats pretreated i.p. 25 mg/kg for 7 days once-a-day; at day 8, 10 mg/kg caffeine. On the procedure:
Effect of the treatment of sleep disorder (insomnia) with compound II of the present invention was assessed in caffeine-induced model of insomnia. Rats were treated for 7 days once-a-day with i.p. 25 mg/kg compound II or saline (control).

Assay [4] relates to rats raised in social isolation (ISO). The settings on record: mean±SEM; socially isolated rats, i.p. 25 mg/kg for 7 days once-a-day; 80 dB prepulse, 110 dB pulse, prepulse latency 100 milliseconds. On the procedure:
Rats were treated for 7 days once-a-day with i.p. 25 mg/kg compound II or saline (control).

The test system of assay [5] is Stressed mice. The settings on record: mean±SEM; stressed mice from Example 2 (i.p. 25 mg/kg for 7 days prior stress); scored during 5 min. On the procedure:
(B) In the chronic stress depression model, young male CD1 mice, singly housed, were used. […] Stress procedure was used for 10 days.
Effect of the treatment of anxiety with compounds of the invention was assessed in rodents in light/dark transition test. Stressed mice from the Example 2 were tested in a dark/light box as described by Crawley et al., Pharmacol Biochem Behav 13, 167-70 (1980). Animals were scored during 5 min for (i) total time spent in light box and (ii) number of exits. […] Data are presented in Table 3 as mean±SEM of (i) total time spent in light box and (ii) number of exits.

Assay [6] relates to mice with seizures induced by pentylenetetrazol. Conditions: i.p. 10 mg/kg for 7 days once-a-day, pentylenetetrazol administered. On the procedure: Effect of the treatment of epilepsy with compounds of the invention was assessed in mice with seizures induced by pentylenetetrazol. Loscher et al., Epilepsy Res 1991, 8:171-189. Mice were treated for 7 days once-a-day with i.p. 10 mg/kg compound II or saline (control). Pentylenetetrazol was administered.

Where [7] appears, read: i.p. 25 mg/kg for 7 days once-a-day, tested at 8th day.

Read-outs that look alike come from different tables or passages of the source.

For `C[N+](C)(C)CCO.O=C([O-])CCC(=O)O` [Compound (I), monocholine salt of succinic acid], in assay [1] (setting [7]), the “Latency of the first floating episode” value was 117 ± 18 s.
For `C[N+](C)(C)CCO.C[N+](C)(C)CCO.O=C([O-])CCC(=O)[O-]` [Compound (II), dicholine salt of succinic acid], the “Latency of the first floating episode” value in assay [1] (setting [7]) amounted to 140 ± 11 s. Moreover, the Sucrose preference in assay [2] (i.p. 25 mg/kg for 7 days once-a-day prior the onset of stress, tested at 10th day of stress) is on record as 72 ± 3 %. In assay [3], the “sleep onset latency (SOL) after caffeine as compared to vehicle” value was “caffeine did not prolonged SOL”. Besides, the Prepulse inhibition in assay [4] is 51 ± 9 %. Besides, in assay [5], the Number of exits came out at 4.8 ± 0.6 and the “Time (total time spent in light box)” value is 250 ± 11 s. Further, in assay [6], the “seizures as compared to control” value is on record as “significantly decreases seizures”.
For the molecule `CN(C)CCCN1c2ccccc2CCc2ccccc21` [Imipramine, reference compound], the “Latency of the first floating episode” value in assay [1] (reference group, i.p. 10 mg/kg 30 min prior the swimming test) amounted to 60 ± 26 s. The molecule further returned a Sucrose preference in assay [2] (reference group, orally 8 mg/kg per day for 7 days prior the stress and during 10-days stress, tested at 10th day) of 75 ± 4 %.
